{
  "source": "patent US20220401385A1",
  "about": "“Combination Therapy Based on PD-1 Signaling Inhibitors” (Kyoto University, priority 2019, published 2022)",
  "key": {"[1]": {"system": "CD8+ T cells in draining lymph nodes", "assay": "CD3/CD28 restimulation of draining lymph node CD8+ T cells of treated mice (3H uptake, IFN-γ ELISA)", "assay_type": "in vivo, C57BL/6 mice", "settings": "combined use of SPD, 24 hours", "procedure": "FIG. 2-1 a) Treated mice were analyzed for draining lymph nodes and the inside of tumor. Briefly, draining lymph nodes of mice were isolated 13 days after tumor inoculation, and stained with antibodies to CD8 and Sca-1. FACS diagram and percentages of Sca-1^+ cells in CD8^+ T cells are shown. b) CD8^+ T cells in isolated draining lymph nodes were stimulated with CD3/CD28 antibody beads. After 24 hours, cell proliferation was examined by means of ^3H uptake. At the same time, IFN-γ concentration in culture supernatant was measured. c) Tumor from the same mice as described above was treated with collagenase. Then, expression rates of PD-1 and Tim3 in tumor-infiltrating CD8^+ T cells were analyzed. d) Oxygen consumption rate (OCR) and extracellular acidification rate (ECAR) of draining lymph node CD8^+ T cells were measured with a Seahorse analyzer (N=3 wells). For statistical analysis, ANOVA was used. * p<0.05, ** p<0.01, *** p<0.001, **** p<0.0001.\nIFN-γ levels in culture supernatant were measured quantitatively with mouse IFN-γ kit (BioLegend) following the instructions on the kit."}, "[2]": {"system": "LLC cells", "assay": "LLC tumor model", "assay_type": "in vivo, C57BL/6 mice", "settings": "SPD 4 mg/kg + PD-L1 antibody", "procedure": "FIG. 2-2 a-b) MethA or CT26 cells were intradermally inoculated into BALB/c mice. Ten days after inoculation, PD-L1 antibody (2 mg/kg), PD-L1 antibody+SPD (1 mg/kg for Meth A, 4 mg/kg for CT26) or SPD alone was administered. c) LLC cells were intradermally inoculated into C57BL/6 mice. Ten days after inoculation, mice were treated in the same manner as described in a-b) above. SPD was administered at 4 mg/kg. d) MC38 cells were inoculated into C57BL/6 Rag2^−/− mice. Ten days after inoculation, mice were treated in the same manner as described in a-b) above. SPD was administered at 5 mg/kg. Tumor growth curve and survival curve are shown."}, "[3]": {"system": "AMPK and mTOR signaling", "assay": "Western blotting of AMPK and mTOR signaling, CD44 low cells", "assay_type": "cell-based, mice", "settings": "presence or absence of SPD 0.2 μM, 1 hour and 2 hours", "procedure": "(§1) FIG. 5 CD8^+ T cells were isolated from the spleen of mice without tumor inoculation, and further isolated into CD44^+ (CD44 high) and CD44^− (CD44 low) cell populations. a) CD44 low cells were simulated with CD3/CD28 antibody beads and SPD (0.2 μM). […] Protein expression levels after 1 hour and 2 hours were confirmed by western blotting with the respective indicated antibodies. As regards statistical analysis, t-test was used for comparison of two groups. * p<0.05, ** p<0.01, *** p<0.001, **** p<0.0001.\n(§2) CD8^+ T cells were isolated using mouse CD8 Microbeads (Miltenyi Biotec or Mojo). After washing with PBS twice, 2×10^6 cells were solubilized in a lysis buffer containing 30 mM Tris-HCl (pH. 7.4), 150 mM NaCl, 10% glycerol, 0.1% SDS, 1% Triton-X-100, 0.05% Na-Doc, 5 mM EDTA (pH. 8.0), protease inhibitor mixture (Roche Molecular Biochemicals) and phosphatase inhibitors (Nacalai Tesque). After measurement of protein concentrations by DC protein assay (Bio-Rad), 4 μg of proteins was mounted on 4 to 20% gradient Mini-PROTEAN TGX Gels (Bio-Rad) and electroblotted onto nitrocellulose membranes, which were then incubated in a blocking buffer of TBS containing 1% BSA. Primary antibody incubations were carried out overnight at 4° C. in blocking buffer. After washing, secondary antibody incubations were carried out at room temperature for 40 min in blocking buffer. […]"}, "[4]": {"system": "AMPK and mTOR signaling", "assay": "Western blotting of AMPK and mTOR signaling, CD44 high cells", "assay_type": "cell-based, mice", "settings": "SPD 0.2 μM, 1 hour and 2 hours", "procedure": "as §1, §2"}, "[5]": {"system": "CD44 low CD8+ T cells", "assay": "Mitochondria-related proteomics in vitro, CD44 low cells", "assay_type": "cell-based, mice", "settings": "late phase, 44 hours after SPD stimulation", "procedure": "FIG. 6 CD8^+ T cells were isolated from the spleen of mice without tumor inoculation, and further isolated into CD44^+ (CD44 high) and CD44^− (CD44 low) cell populations. CD44 low cells and CD44 high cells were simulated with CD3/CD28 antibody beads and SPD (0.2 μM). After 1 hour and 44 hours, cells were collected and proteomics analyses regarding mitochondria-related proteins were conducted. A heat map showing the categories of respective signaling pathways, associated protein names and comparison of their expression levels is given.\nT cells were prepared by two methods. For in vivo analysis, 13 days after tumor inoculation and 3 days after the start of therapy, draining lymph nodes from 5 mice were pooled, followed by isolation of CD8^+ T cells. From the isolated CD8^+ T cells, three samples each consisting of 1×10^6 cells were prepared and used for analysis. For in vitro experiments, 2×10^5 CD8^+ T cells stimulated with 0.2 μM spermidine for 1 hour were used. For mass spectrometry analysis, a Tandem Mass Tag (TMT) system or a Data Independent Acquisition (DIA) system was used. In the analysis of in vivo CD8^+ T cells (FIG. 3), those proteins which increased by 1.5-fold or more or decreased by 0.6-fold or less were extracted."}},
  "data": [
    {"smiles": "NCCCCNCCCN", "note": "[SPD, spermidine]", "values": [
      {"measurement": "cell proliferation of isolated CD8+ T cells as stimulated with CD3", "setting": "[1]; 3H uptake", "result": "enhanced"},
      {"measurement": "IFN-γ production of isolated CD8+ T cells as stimulated with CD3", "setting": "[1]; culture supernatant", "result": "enhanced"},
      {"measurement": "antitumor effect of PD-1 inhibitory antibody with SPD", "setting": "[2]", "result": "exhibit the antitumor effect"},
      {"measurement": "AMPK and mTOR signaling", "setting": "[3]", "result": "did not cause much difference"},
      {"measurement": "expression levels of pAMPK and its downstream molecules (pACC, pPKCa)", "setting": "[4]", "result": "markedly high"},
      {"measurement": "expression levels of mitochondrial proteins and proteins of mitochondria-related metabolism", "setting": "[5]", "result": "high"}
    ]}
  ]
}
